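Five concentrations, 48 hours, 96-well plates. The concentration for 50% growth inhibition is given as GI50. At the TGI there is no net growth.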
Experiments:
Assay in all cases: NCI anticancer screen, dose series, 48 h
A498 renal = system: A498 renal
LOX IMVI melanoma = system: LOX IMVI melanoma
RPMI-8226 leukemia = system: RPMI-8226 leukemia
MOLT-4 leukemia = system: MOLT-4 leukemia
SF-539 CNS = system: SF-539 CNS
EKVX NSCLC = system: EKVX NSCLC
NCI-H23 lung = system: NCI-H23 lung
HS 578T breast = system: HS 578T breast
HCT-15 colon = system: HCT-15 colon
SK-MEL-2 melanoma = system: SK-MEL-2 melanoma
HCC-2998 colon = system: HCC-2998 colon
HT29 colon = system: HT29 colon
UACC-62 melanoma = system: UACC-62 melanoma
KM12 colon = system: KM12 colon
MCF7 breast = system: MCF7 breast
CCRF-CEM leukemia = system: CCRF-CEM leukemia
UACC-257 melanoma = system: UACC-257 melanoma
A549 NSCLC = system: A549 NSCLC
SF-295 CNS = system: SF-295 CNS
OVCAR-4 ovarian = system: OVCAR-4 ovarian
SNB-19 CNS = system: SNB-19 CNS
U251 CNS = system: U251 CNS
NCI-H226 lung = system: NCI-H226 lung
HCT-116 colon = system: HCT-116 colon
SW-620 colon = system: SW-620 colon
CAKI-1 renal = system: CAKI-1 renal
RXF 393 renal = system: RXF 393 renal
NCI-H460 lung = system: NCI-H460 lung
K-562 leukemia = system: K-562 leukemia
T-47D breast = system: T-47D breast
786-0 renal = system: 786-0 renal
TK-10 renal = system: TK-10 renal
MALME-3M melanoma = system: MALME-3M melanoma
BT-549 breast = system: BT-549 breast
COLO 205 colon = system: COLO 205 colon
OVCAR-5 ovarian = system: OVCAR-5 ovarian
HOP-62 NSCLC = system: HOP-62 NSCLC
SF-268 CNS = system: SF-268 CNS
SK-MEL-5 melanoma = system: SK-MEL-5 melanoma
NCI-H522 lung = system: NCI-H522 lung
SN12C renal = system: SN12C renal
HOP-92 NSCLC = system: HOP-92 NSCLC
HL-60(TB) leukemia = system: HL-60(TB) leukemia
SK-OV-3 ovarian = system: SK-OV-3 ovarian
PC-3 prostate = system: PC-3 prostate
DU-145 prostate = system: DU-145 prostate
M14 melanoma = system: M14 melanoma
MDA-MB-435 = system: MDA-MB-435
UO-31 renal = system: UO-31 renal
OVCAR-3 ovarian = system: OVCAR-3 ovarian
OVCAR-8 ovarian = system: OVCAR-8 ovarian
SNB-75 CNS = system: SNB-75 CNS
MDA-MB-468 breast = system: MDA-MB-468 breast
SR leukemia = system: SR leukemia
MDA-MB-231 breast = system: MDA-MB-231 breast
IGROV1 ovarian = system: IGROV1 ovarian
SK-MEL-28 melanoma = system: SK-MEL-28 melanoma
ACHN renal = system: ACHN renal

O=C(c1ccc(Cl)cc1)C1[C@H](c2ccc(Br)cc2)[C@@H](c2ccccc2)NC12C(=O)Nc1ccccc12 (stereo partly specified)
GI50 (A498 renal): 10.7 µM | TGI (A498 renal): 22.2 µM | GI50 (LOX IMVI melanoma): 5.04 µM | TGI (LOX IMVI melanoma): 14.3 µM | GI50 (RPMI-8226 leukemia): 6.53 µM | TGI (RPMI-8226 leukemia): 33.9 µM | GI50 (MOLT-4 leukemia): 2.69 µM | TGI (MOLT-4 leukemia): 48.7 µM | GI50 (SF-539 CNS): 8.59 µM | TGI (SF-539 CNS): 18 µM | GI50 (EKVX NSCLC): 9.02 µM | TGI (EKVX NSCLC): 29 µM | GI50 (NCI-H23 lung): 8.53 µM | TGI (NCI-H23 lung): 19.6 µM | GI50 (HS 578T breast): 8.79 µM | TGI (HS 578T breast): 26.3 µM | GI50 (HCT-15 colon): 6.91 µM | TGI (HCT-15 colon): 18.7 µM | GI50 (SK-MEL-2 melanoma): 8.59 µM | TGI (SK-MEL-2 melanoma): 16.9 µM | GI50 (HCC-2998 colon): 7.79 µM | TGI (HCC-2998 colon): 16.7 µM | GI50 (HT29 colon): 5.7 µM | TGI (HT29 colon): 15 µM | GI50 (UACC-62 melanoma): 4.16 µM | TGI (UACC-62 melanoma): 12.1 µM | GI50 (KM12 colon): 6.13 µM | TGI (KM12 colon): 17.9 µM | GI50 (MCF7 breast): 4.65 µM | TGI (MCF7 breast): 29.3 µM | GI50 (CCRF-CEM leukemia): 4.54 µM | TGI (CCRF-CEM leukemia): 26.8 µM | GI50 (UACC-257 melanoma): 7.28 µM | TGI (UACC-257 melanoma): 16.3 µM | GI50 (A549 NSCLC): 5.03 µM | TGI (A549 NSCLC): 15.9 µM | GI50 (SF-295 CNS): 6.33 µM | TGI (SF-295 CNS): 16.9 µM | GI50 (OVCAR-4 ovarian): 8.37 µM | TGI (OVCAR-4 ovarian): 31.3 µM | GI50 (SNB-19 CNS): 10.7 µM | TGI (SNB-19 CNS): 42.2 µM | GI50 (U251 CNS): 7.49 µM | TGI (U251 CNS): 16 µM | GI50 (NCI-H226 lung): 7.87 µM | TGI (NCI-H226 lung): 15.9 µM | GI50 (HCT-116 colon): 3.83 µM | TGI (HCT-116 colon): 13.5 µM | GI50 (SW-620 colon): 7.4 µM | TGI (SW-620 colon): 18.6 µM | GI50 (CAKI-1 renal): 2.88 µM | TGI (CAKI-1 renal): 17.4 µM | GI50 (RXF 393 renal): 6.62 µM | TGI (RXF 393 renal): 14 µM | GI50 (NCI-H460 lung): 5.88 µM | TGI (NCI-H460 lung): 16 µM | GI50 (K-562 leukemia): 2.94 µM | TGI (K-562 leukemia): 56 µM | GI50 (T-47D breast): 3.96 µM | TGI (T-47D breast): 16 µM | GI50 (786-0 renal): 8 µM | TGI (786-0 renal): 23.1 µM | GI50 (TK-10 renal): 8.72 µM | TGI (TK-10 renal): 20.1 µM | GI50 (MALME-3M melanoma): 8.65 µM | TGI (MALME-3M melanoma): 16.3 µM | GI50 (BT-549 breast): 8.86 µM | TGI (BT-549 breast): 17 µM | GI50 (COLO 205 colon): 9.95 µM | TGI (COLO 205 colon): 19.6 µM | GI50 (OVCAR-5 ovarian): 7.19 µM | TGI (OVCAR-5 ovarian): 15.1 µM | GI50 (HOP-62 NSCLC): 8.69 µM | TGI (HOP-62 NSCLC): 18.3 µM | GI50 (SF-268 CNS): 7.03 µM | TGI (SF-268 CNS): 28.9 µM | GI50 (SK-MEL-5 melanoma): 9.7 µM | TGI (SK-MEL-5 melanoma): 17.7 µM | GI50 (NCI-H522 lung): 5.93 µM | TGI (NCI-H522 lung): 15.5 µM | GI50 (SN12C renal): 5.41 µM | TGI (SN12C renal): 12.3 µM | GI50 (HOP-92 NSCLC): 6.27 µM | TGI (HOP-92 NSCLC): 15.1 µM | GI50 (HL-60(TB) leukemia): 8.74 µM | TGI (HL-60(TB) leukemia): 40.8 µM | GI50 (SK-OV-3 ovarian): 14.8 µM | TGI (SK-OV-3 ovarian): 54 µM | GI50 (PC-3 prostate): 2.86 µM | TGI (PC-3 prostate): 17.7 µM | GI50 (DU-145 prostate): 9.92 µM | TGI (DU-145 prostate): 28.5 µM | GI50 (M14 melanoma): 6.97 µM | TGI (M14 melanoma): 16.4 µM | GI50 (MDA-MB-435): 7.84 µM | TGI (MDA-MB-435): 16.9 µM | GI50 (UO-31 renal): 3.37 µM | TGI (UO-31 renal): 12 µM | GI50 (OVCAR-3 ovarian): 8.74 µM | TGI (OVCAR-3 ovarian): 27.4 µM | GI50 (OVCAR-8 ovarian): 8.26 µM | TGI (OVCAR-8 ovarian): 17.3 µM | GI50 (SNB-75 CNS): 5.1 µM | TGI (SNB-75 CNS): 26.1 µM | GI50 (MDA-MB-468 breast): 8.43 µM | TGI (MDA-MB-468 breast): 19.5 µM | GI50 (SR leukemia): 4.32 µM | TGI (SR leukemia): 42.2 µM | GI50 (MDA-MB-231 breast): 6.21 µM | TGI (MDA-MB-231 breast): 13.5 µM | GI50 (IGROV1 ovarian): 7.01 µM | TGI (IGROV1 ovarian): 16.2 µM | GI50 (SK-MEL-28 melanoma): 7.53 µM | TGI (SK-MEL-28 melanoma): 15.1 µM | GI50 (ACHN renal): 5.64 µM | TGI (ACHN renal): 15.5 µM

From PubChem BioAssay (NCI)
